According to patent US10689340B2, “Substituted indoline derivatives as dengue viral replication inhibitors” (priority 2016, dated 2020):
Structures can show the parent of a compound that is named as a salt. Where two headings read alike, the source gives them in different places.

Legend:
DENV-2 16681 strain = experiment: DENV-2 antiviral assay (eGFP fluorescence); type: cell-based, Dengue virus; conditions: DENV-2 16681 eGFP, Vero cells, MOI 0.5, 3 days
DENV-1 strain TC974#666 = experiment: Tetravalent RT-qPCR assay, serotype 1; type: cell-based; conditions: Dengue virus, DENV1, Vero, 72 h
Procedure: (§1) The antiviral activity of the compounds of the invention was tested against DENV-1 strain TC974#666 (NCPV), DENV-2 strain 16681, DENV-3 strain H87 (NCPV) and DENV-4 strain H241 (NCPV) in a RT-qPCR assay. Therefore, Vero cells were infected with either DENV-1, or -2, or -3, or -4 in the presence or absence of test compounds. At day 3 post-infection, the cells were lysed and cell lysates were used to prepare cDNA of both a viral target (the 3′UTR of DENV; Table 2) and a cellular reference gene (β-actin, Table 2). Subsequently, a duplex real time PCR was performed on a Lightcycler480 instrument. The generated Cp value is inversely proportional to the amount of RNA expression of these targets. Inhibition of DENV replication by a test compound results in a shift of Cp's for the 3′UTR gene. On the other hand, if a test compound is toxic to the cells, a similar effect on β-actin expression will be observed. The comparative ΔΔCp method is used to calculate EC50, which is based on the relative gene expression of the target gene (3′UTR) normalized with the cellular housekeeping gene (β-actin). In addition, CC50 values are determined based on the Cp values acquired for the housekeeping gene β-actin.
(§2) The culture medium consisted of minimal essential medium supplemented with 2% of heat-inactivated fetal calf serum, 0.04% gentamycin (50 mg/mL) and 2 mM of L-glutamine. Vero cells, obtained from ECACC, were suspended in culture medium and 75 μL/well was added in 96-well plates (10000 cells/well), which already contain the antiviral compounds. […] In addition, each plate contains wells which are assigned as virus controls (containing cells and virus in the absence of compound) and cell controls (containing cells in the absence of virus and compound). Once the cells were added in the plates, the plates were incubated in a fully humidified incubator (37° C., 5% CO2) until the next day. Dengue viruses serotype-1, -2, -3 and -4 were diluted in order to obtain a Cp of ˜22-24 in the assay. Therefore, 25 μL of virus suspension was added to all the wells containing test compound and to the wells assigned as virus control. In parallel, 25 μL of culture medium was added to the cell controls. Next, the plates were incubated for 3 days in a fully humidified incubator (37° C., 5% CO2). After 3 days, the supernatant was removed from the wells and the cells were washed twice with ice-cold PBS (˜100 μL). The cell pellets within the 96-well plates were stored at −80° C. for at least 1 day. Next, RNA was extracted using the Cells-to-CT^Tm lysis kit, according to the manufacturer's guideline (Life Technologies). The cell lysates can be stored at −80° C. or immediately used in the reverse transcription step.
(§3) In preparation of the reverse transcription step, mix A (table 3A) was prepared and 7.57 μL/well was dispensed in a 96-well plate. After addition of 5 μL of the cell lysates, a five minute denaturation step at 75° C. was performed (table 3B). Afterwards, 7.43 μL of mix B was added (table 3C) and the reverse transcription step was initiated (table 3D) to generate cDNA.
(§4) Finally, a RT-qPCR mix was prepared, mix C (table 4A), and 22.02 μL/well was dispensed in 96-well LightCycler qPCR plates to which 3 μL of cDNA was added and the qPCR was performed according to the conditions in table 4B on a LightCycler 480.
(§5) Using the LightCycler software and an in-house LIMS system, dose response curves for each compound were calculated and the half maximal effective concentration (EC50) and the half maximal cytotoxic concentration (CC50) were determined (Tables 5-8).

DENV-2 strain 16681 = experiment: Tetravalent RT-qPCR assay, serotype 2; type: cell-based; conditions: Dengue virus, DENV2, 72 h; RT-qPCR serotype 2 16681, Protocol A, Vero cells, day 3
Procedure: as §1, §2, §3, §4, §5

DENV-3 strain H87 = experiment: Tetravalent RT-qPCR assay, serotype 3; type: cell-based; conditions: Dengue virus, DENV3, 72 h; RT-qPCR serotype 3 H87, Protocol A, Vero cells, day 3
Procedure: as §1, §2, §3, §4, §5

DENV-4 strain H241 = experiment: Tetravalent RT-qPCR assay, serotype 4; type: cell-based; conditions: Dengue virus, DENV4, 72 h; RT-qPCR serotype 4 H241, Protocol A, Vero cells, day 3
Procedure: as §1, §2, §3, §4, §5

in vitro [1] = type: cell-based; conditions: African green monkey, CC50
Procedure: as §1, with “The comparative ΔΔCp method is used to calculate EC50, which is based on the relative gene expression of the target gene (3′UTR) normalized with the cellular housekeeping gene (β-actin).” left out, “β-actin. […]” for “β-actin.”
as §5

Vero cells [2] = experiment: in vitro; type: cell-based; conditions: African green monkey, 3 days
Procedure: as §1, with “The comparative ΔΔCp method is used to calculate EC50, which is based on the relative gene expression of the target gene (3′UTR) normalized with the cellular housekeeping gene (β-actin).” left out, “β-actin. […]” for “β-actin.”
as §5

Vero cells [3] = conditions: African green monkey
DENV-2 = conditions: analogous DENV-2 antiviral assay, reported activity; cited from earlier work
in vitro [4] = conditions: African green monkey

Question: Which EC50 (DENV-2 16681 strain) does the source give for `COc1cc(NC(C(=O)N2CCc3ccc(C(F)(F)F)cc32)c2ccc(Cl)cc2OC)cc(OCCCC(=O)O)c1` (single isomer, unassigned) [Compound 6B] here?
Answer: The EC50 was 0.13 nM.

Question: What about the EC50 (DENV-1 strain TC974#666) of the same molecule?
Answer: The EC50 was 0.47 nM.

Question: And the EC50 (DENV-2 strain 16681)?
Answer: Its EC50 is 0.15 nM.

Question: What about the EC50 (DENV-3 strain H87) of the same molecule?
Answer: The EC50 was 1.7 nM.

Question: And the EC50 (DENV-4 strain H241)?
Answer: The EC50 was 16 nM.

Question: And the CC50 at 3 days (in vitro [1])?
Answer: The CC50 at 3 days was > 2500 nM.

Question: What about the CC50 (Vero cells [2]) of the same molecule?
Answer: Its CC50 is > 2500 nM.

Question: And the CC50 (Vero cells [3])?
Answer: The CC50 was 13000 nM.

Question: Which EC50 (DENV-2) does the source give for `COc1cccc(NC(C(=O)N2CCc3ccccc32)c2ccccc2)c1` (stereo not drawn) [(56) of WO-2013/045516] here?
Answer: Its EC50 is 450 nM.

Question: Which EC50 (DENV-2) does the source give for `CNC(=O)c1cccc(NC(C(=O)c2c[nH]c3ccccc23)c2ccccc2)c1` (stereo not drawn) [(170) of WO-2013/045516] here?
Answer: Its EC50 is 440 nM.

Question: Which melting point does the source give for `COc1cc(NC(C(=O)N2CCc3ccc(C(F)(F)F)cc32)c2ccc(Cl)cc2OC)cc(OCCCC(=O)O)c1` (racemic) (as salt: HCl) [Compound 6, 4-(3-((1-(4-chloro-2-methoxyphenyl)-2-oxo-2-(6-(trifluoro-methyl)indolin-1-yl)ethyl)amino)-5-methoxyphenoxy)butanoic acid] here?
Answer: The melting point was 178 °C.

Question: Which results are given for `COc1cc(NC(C(=O)N2CCc3ccc(C(F)(F)F)cc32)c2ccc(Cl)cc2)cc(OCCCC(=O)O)c1` (racemic) [Compound 3, 4-(3-((1-(4-chlorophenyl)-2-oxo-2-(6-(trifluoromethyl)indolin-1-yl)ethyl)amino)-5-methoxyphenoxy)butanoic acid]?
Answer: EC50 (DENV-2 16681 strain; Dengue virus, DENV2, Vero, 72 h): 0.48 nM; melting point: 192 °C; CC50 (in vitro [4]): 13000 nM

Question: With `COc1cc(NC(C(=O)N2CCc3ccc(C(F)(F)F)cc32)c2ccc(Cl)cc2F)cc(OCCCC(=O)O)c1` (racemic) (as salt: HCl) [Compound 9, 4-(3-((1-(4-chloro-2-fluorophenyl)-2-oxo-2-(6-(trifluoromethyl)indolin-1-yl)ethyl)amino)-5-methoxy-phenoxy)butanoic acid] as the molecule, how does the melting point read?
Answer: The melting point was 110 °C.
